Values quoted from earlier work as cited in patent US5942547A, “2-Deoxystreptamine derivatives, pharmaceutical compositions thereof and therapeutic methods using same” (priority 1996, dated 1999).

Test system: REV/RRE interaction

Compound: NC[C@@H]1O[C@H](O[C@H]2[C@@H](O)[C@H](O[C@@H]3[C@@H](O)[C@H](N)C[C@H](N)[C@H]3O[C@H]3O[C@H](CN)[C@@H](O)[C@H](O)[C@H]3N)O[C@@H]2CO)[C@H](N)[C@@H](O)[C@@H]1O [neomycin B]
- disruption of the REV/RRE interaction (in words): could disrupt the REV/RRE interaction
